Like-named read-outs stand apart in the source and are kept apart here. Each block holds one molecule with its values, some of them ahead of it.
Columns and labels:
[1] = tested on: KBC5-8 variant (P-glycoprotein-mediated multi-chemoresistance); test: Growth inhibition of multi-chemoresistant KBC5-8 cells after drug incubation and laser exposure; assay type: cell-based, human; details: read-out: 50% inhibitory concentration (cell growth)
Description: (§1) In addition, chemosensitive KB cells (human carcinoma cells) were compared with their chemoresistant KBC5-8 variant. The multi-chemoresistance of the latter is also P-glycoprotein-mediated and was induced experimentally by colchicine addition to the cell culture medium. Before the experiment started, the human carcinoma cells were typsinized and suspended in fresh cell culture medium.
(§2) Then, the cells were incubated with graded concentrations of vinblastin and napavin (photoactivity-labeled cytostatic agent). […] The mouse ascites cells were incubated with these pharmacetuical agents for five minutes. The human tumor cells were incubated for ten minutes. Then, the cell suspensions were transferred by pipetting into plastic dishes or trays and exposed using an argon laser (457.8 nm, 48 mW/cm^2) at room temperature for 1 minute. Thereafter, the cells were washed with fresh cell culture medium twice and cultured in 24-well multidishes or multitrays for three days. At the end of the experiment, cell growth was measured and the 50% inhibitory concentration of the cytostatic agents vinblastin and napavin was determined graphically as usual.

[2] = tested on: mouse ascites cells (strain SR, P-glycoprotein-mediated multi-chemoresistance); test: Growth inhibition of multi-chemoresistant mouse ascites cells SR after drug incubation and laser exposure; assay type: cell-based; details: for IC50: read-out: 50% inhibitory concentration (cell growth); for 50% growth inhibition concentration in SR relative to wild-type (HD34K) concentration: absence of verapamil
Description: (§3) Chemosensitive mouse ascites cells (strain HD34K) were compared with their variant (strain SR) which distinuishes itself by P-glycoprotein-mediated multi-chemoresistance. The chemoresistance of the SR cells developed spontaneously. The mouse ascites cells were suspended in fresh cell culture medium before the experiment started.
(§4) All of the experiments were carried out under flavin-protecting test conditions (Granzow et al., Cancer Res. 55, 4837-4843, (1995)). Freshly prepared cell suspensions were previously incubated at 36.5° C. for 15 minutes. Then, the cells were incubated with graded concentrations of vinblastin and napavin (photoactivity-labeled cytostatic agent). […] The mouse ascites cells were incubated with these pharmacetuical agents for five minutes. The human tumor cells were incubated for ten minutes. Then, the cell suspensions were transferred by pipetting into plastic dishes or trays and exposed using an argon laser (457.8 nm, 48 mW/cm^2) at room temperature for 1 minute. Thereafter, the cells were washed with fresh cell culture medium twice and cultured in 24-well multidishes or multitrays for three days. At the end of the experiment, cell growth was measured and the 50% inhibitory concentration of the cytostatic agents vinblastin and napavin was determined graphically as usual.

[3] = tested on: KB cells (human carcinoma cells); test: Growth inhibition of chemosensitive KB cells after drug incubation and laser exposure; assay type: cell-based; details: for IC50: KB (w.t.), 10 min incubation, 3 days culture, read-out: 50% inhibitory concentration (cell growth)
Description: as §1, §2

[4] = tested on: mouse ascites cells (strain HD34K); test: Growth inhibition of chemosensitive mouse ascites cells HD34K after drug incubation and laser exposure; assay type: cell-based; details: HD34K (w.t.), 5 min incubation, argon laser 1 min, 3 days culture; for IC50: read-out: 50% inhibitory concentration (cell growth)
Description: as §3, §4

[5] = no verapamil, argon laser 457.8 nm 1 min

IC50 ([3]; Homo sapiens, KB, + 1 μM verapamil, argon laser 1 min): 180 nM
IC50 ([3]; Homo sapiens, KB, no verapamil, argon laser 457.8 nm 1 min): 100 to 200 nM
IC50 [3, 5]: 160 nM
Molecule: CC[C@]1(O)C[C@@H]2CN(CCc3c([nH]c4ccccc34)[C@@](C(=O)OC)(c3cc4c(cc3OC)N(C)[C@H]3[C@@](O)(C(=O)OC)[C@H](OC(C)=O)[C@]5(CC)C=CCN6CC[C@]43[C@@H]65)C2)C1 [VLB, vinblastin, reference compound]
IC50 ([1]; Homo sapiens): 27000 nM
IC50 ([2]; Mus musculus): 7000 nM
50% growth inhibition concentration in SR relative to wild-type (HD34K) concentration [2]: about 10 times
50% inhibitory concentration (cell growth) ([4]; + 1 μM verapamil): insignificantly higher
IC50 ([4]; Mus musculus, + 1 μM verapamil): 750 nM
IC50 ([4]; Mus musculus, no verapamil): 660 nM

Molecule: COc1ccc(CCN(C)CCCC(C#N)(c2ccc(OC)c(OC)c2)C(C)C)cc1OC (stereo not shown) [VPM, verapamil]
Influence of verapamil on concentration required for 50% growth suppression ([3]; KB cells, vinblastin and napavin): no influence

IC50 ([3]; + 1 μM verapamil, argon laser 1 min): 150 nM
IC50 [3, 5]: 160 nM
Molecule: napavin
IC50 ([1]; KBC5-8 (mdr), + 1 μM verapamil, 10 min incubation, argon laser 1 min, 3 days culture): 1000 nM
IC50 ([1]; KBC5-8 (mdr), + 2 μM verapamil, 10 min incubation, argon laser 1 min, 3 days culture): 350 nM
IC50 ([1]; KBC5-8 (mdr), no verapamil, 10 min incubation, argon laser 1 min, 3 days culture): 3800 nM
IC50 ([2]; SR (mdr), + 1 μM verapamil, 5 min incubation, argon laser 1 min, 3 days culture): 900 nM
IC50 ([2]; SR (mdr), + 2 μM verapamil, 5 min incubation, argon laser 1 min, 3 days culture): 600 nM
IC50 ([2]; SR (mdr), no verapamil, 5 min incubation, argon laser 1 min, 3 days culture): 4750 nM
50% growth inhibition concentration in SR relative to wild-type (HD34K) concentration [2]: 10 times
Inhibitory concentrations SR versus wild-type HD34K ([2]; with 1 μM verapamil): no longer differ significantly
Inhibitory concentrations SR versus wild-type HD34K ([2]; with 2 μM verapamil): identical
50% inhibitory concentration (cell growth) ([4]; + 1 μM verapamil): slightly less
IC50 ([4]; + 1 μM verapamil): 330 nM
IC50 ([4]; no verapamil, listed as napavin): ~400 nM
IC50 ([4]; no verapamil): 430 nM
